Experimental data taken from article PMC5218480 (PLoS ONE, 2017).

Test system: MV-4-11 cells
Assay: Gene expression microarray analysis (Affymetrix PrimeView) and GSEA
Assay type: cell-based, human
Set-up: RFU PODN (11730768_x_at) / Fold change /veh PODN (11730768_x_at) / RFU LINC00158 (11744669_a_at) / Fold change /veh LINC00158 (11744669_a_at) / RFU DUSP10 (11751237_a_at) / Fold change /veh DUSP10 (11751237_a_at) / RFU ID3 (11757404_x_at) / Fold change /veh ID3 (11757404_x_at) / RFU PLEKHG5 (11737974_s_at) / Fold change /veh PLEKHG5 (11737974_s_at) / RFU LRRC4B (11730491_at) / Fold change /veh LRRC4B (11730491_at) / RFU GIMAP4 (11747438_a_at) / Fold change /veh GIMAP4 (11747438_a_at) / RFU KRT8 (11758183_x_at) / Fold change /veh KRT8 (11758183_x_at) / RFU CNN1 (11734310_a_at) / Fold change /veh CNN1 (11734310_a_at) / RFU VPS37D (11726825_at) / Fold change /veh VPS37D (11726825_at) / RFU C10orf10 (11716522_x_at) / Fold change /veh C10orf10 (11716522_x_at) / RFU KIR2DL2 /// KIR2DL4 /// KIR2DL5A /// KIR2DL5B /// KIR2DS1 /// KIR2DS2 /// KIR2DS3 /// KIR2DS4 /// KIR3DL3 /// KIR3DL3 /// KIR3DS1 (11738374_at) / Fold change /veh KIR2DL2 /// KIR2DL4 /// KIR2DL5A /// KIR2DL5B /// KIR2DS1 /// KIR2DS2 /// KIR2DS3 /// KIR2DS4 /// KIR3DL3 /// KIR3DL3 /// KIR3DS1 (11738374_at) / RFU C1QL1 (11718748_at) / Fold change /veh C1QL1 (11718748_at) / RFU TMPRSS4 (11747572_a_at) / Fold change /veh TMPRSS4 (11747572_a_at) / RFU HAMP (11756126_x_at) / Fold change /veh HAMP (11756126_x_at) / RFU RNFT2 (11725882_a_at) / Fold change /veh RNFT2 (11725882_a_at) / RFU NR4A2 (11747474_a_at) / Fold change /veh NR4A2 (11747474_a_at) / RFU ABCC12 (11746883_a_at) / Fold change /veh ABCC12 (11746883_a_at) / RFU TMEM136 (11760407_x_at) / Fold change /veh TMEM136 (11760407_x_at) / RFU CLDN22 /// WWC2 (11732394_at) / Fold change /veh CLDN22 /// WWC2 (11732394_at) / RFU HLA-DPB1 (11760878_x_at) / Fold change /veh HLA-DPB1 (11760878_x_at) / RFU SPINT1 (11716480_a_at) / Fold change /veh SPINT1 (11716480_a_at) / RFU GAP43 (11754022_s_at) / Fold change /veh GAP43 (11754022_s_at) / RFU A4GNT (11735810_at) / Fold change /veh A4GNT (11735810_at) / RFU PRB3 (11715151_x_at) / Fold change /veh PRB3 (11715151_x_at) / RFU TUBB4B (11761932_at) / Fold change /veh TUBB4B (11761932_at) / RFU CAPN14 (11732068_a_at) / Fold change /veh CAPN14 (11732068_a_at) / RFU TMCC2 (11721928_a_at) / Fold change /veh TMCC2 (11721928_a_at) / RFU IRGQ (11745062_a_at) / Fold change /veh IRGQ (11745062_a_at) / RFU FAM174B (11720279_a_at) / Fold change /veh FAM174B (11720279_a_at) / RFU TMPRSS4 (11748680_a_at) / Fold change /veh TMPRSS4 (11748680_a_at) / RFU FAM212B (11763350_a_at) / Fold change /veh FAM212B (11763350_a_at) / RFU PLEKHG5 (11743358_a_at) / Fold change /veh PLEKHG5 (11743358_a_at) / RFU ZSCAN30 (11745921_a_at) / Fold change /veh ZSCAN30 (11745921_a_at) / RFU CMKLR1 (11741424_a_at) / Fold change /veh CMKLR1 (11741424_a_at) / RFU LOC101060620 /// MAPK8IP1 (11723275_at) / Fold change /veh LOC101060620 /// MAPK8IP1 (11723275_at) / RFU SPTSSB (11747773_x_at) / Fold change /veh SPTSSB (11747773_x_at) / RFU PRSS12 (11739890_at) / Fold change /veh PRSS12 (11739890_at) / RFU BIN1 (11741810_x_at) / Fold change /veh BIN1 (11741810_x_at) / RFU WNT11 (11732464_a_at) / Fold change /veh WNT11 (11732464_a_at) / RFU C10orf10 (11716521_a_at) / Fold change /veh C10orf10 (11716521_a_at) / RFU C5orf56 (11738089_at) / Fold change /veh C5orf56 (11738089_at) / RFU CYB561 (11721691_x_at) / Fold change /veh CYB561 (11721691_x_at) / RFU ANKRD19P (11752326_a_at) / Fold change /veh ANKRD19P (11752326_a_at) / RFU OR2T12 /// OR2T33 /// OR2T8 (11738714_s_at) / Fold change /veh OR2T12 /// OR2T33 /// OR2T8 (11738714_s_at) / RFU VCAN (11748164_a_at) / Fold change /veh VCAN (11748164_a_at) / RFU JSRP1 (11732532_at) / Fold change /veh JSRP1 (11732532_at) / RFU KRTAP10-11 (11738290_x_at) / Fold change /veh KRTAP10-11 (11738290_x_at) / RFU MYO3A (11730013_a_at) / Fold change /veh MYO3A (11730013_a_at) / RFU EBF3 (11725865_a_at) / Fold change /veh EBF3 (11725865_a_at) / RFU CAMK2N1 (11719241_x_at) / Fold change /veh CAMK2N1 (11719241_x_at) / RFU C5orf56 (11738088_a_at) / Fold change /veh C5orf56 (11738088_a_at) / RFU OLFML3 (11715873_a_at) / Fold change /veh OLFML3 (11715873_a_at) / RFU LOC100653217 /// NTM (11731650_a_at) / Fold change /veh LOC100653217 /// NTM (11731650_a_at) / RFU MAPK11 (11762145_a_at) / Fold change /veh MAPK11 (11762145_a_at) / RFU FIZ1 (11724087_x_at) / Fold change /veh FIZ1 (11724087_x_at) / RFU OASL (11726364_x_at) / Fold change /veh OASL (11726364_x_at) / RFU SOX15 (11748057_x_at) / Fold change /veh SOX15 (11748057_x_at) / RFU CD79A (11719716_a_at) / Fold change /veh CD79A (11719716_a_at) / RFU HIST1H1D (11736915_at) / Fold change /veh HIST1H1D (11736915_at) / RFU CASKIN2 (11723855_a_at) / Fold change /veh CASKIN2 (11723855_a_at) / RFU LOC730098 (11760151_x_at) / Fold change /veh LOC730098 (11760151_x_at) / RFU OR4N2 (11742367_at) / Fold change /veh OR4N2 (11742367_at) / RFU PRRT2 (11749266_a_at) / Fold change /veh PRRT2 (11749266_a_at) / RFU SNX32 (11753110_a_at) / Fold change /veh SNX32 (11753110_a_at) / RFU CDHR5 (11726645_a_at) / Fold change /veh CDHR5 (11726645_a_at) / RFU RCAN1 (11760418_a_at) / Fold change /veh RCAN1 (11760418_a_at) / RFU FAM167A (11723789_a_at) / Fold change /veh FAM167A (11723789_a_at) / RFU FAM26E (11764081_at) / Fold change /veh FAM26E (11764081_at) / RFU ISYNA1 (11749810_s_at) / Fold change /veh ISYNA1 (11749810_s_at) / RFU ACY1 (11761880_at) / Fold change /veh ACY1 (11761880_at) / RFU 11764098_at / Fold change /veh 11764098_at / RFU SAMD14 (11745864_x_at) / Fold change /veh SAMD14 (11745864_x_at) / RFU NPB (11741838_a_at) / Fold change /veh NPB (11741838_a_at) / RFU TMPRSS6 (11731388_a_at) / Fold change /veh TMPRSS6 (11731388_a_at) / RFU KRTAP10-2 (11738614_at) / Fold change /veh KRTAP10-2 (11738614_at) / RFU ARHGAP8 /// PRR5-ARHGAP8 (11727945_x_at) / Fold change /veh ARHGAP8 /// PRR5-ARHGAP8 (11727945_x_at) / RFU KRTAP5-7 /// NADSYN1 (11734609_at) / Fold change /veh KRTAP5-7 /// NADSYN1 (11734609_at) / RFU RASL12 (11751679_a_at) / Fold change /veh RASL12 (11751679_a_at) / RFU CDKN2B (11736163_a_at) / Fold change /veh CDKN2B (11736163_a_at) / RFU PRF1 (11729649_at) / Fold change /veh PRF1 (11729649_at) / RFU, ZNF638 /// ZNF638-IT1 / Fold change vs veh, ZNF638 /// ZNF638-IT1 / RFU, PANK3 / Fold change vs veh, PANK3 / RFU, SH3YL1 / Fold change vs veh, SH3YL1 / RFU, ZEB2 / Fold change vs veh, ZEB2 / RFU, NRIP1 / Fold change vs veh, NRIP1 / RFU, PTTG1IP / Fold change vs veh, PTTG1IP / RFU, CAPN2 / Fold change vs veh, CAPN2 / RFU, MED14 / Fold change vs veh, MED14 / RFU, SNORA58 / Fold change vs veh, SNORA58 / RFU, C1orf63 / Fold change vs veh, C1orf63 / RFU, LRRFIP1 / Fold change vs veh, LRRFIP1 / RFU, NDUFAF7 / Fold change vs veh, NDUFAF7 / RFU, SLC12A2 / Fold change vs veh, SLC12A2 / RFU, IBTK / Fold change vs veh, IBTK / RFU, ESF1 / Fold change vs veh, ESF1 / Fold change vs veh, TMEM50B / RFU, TAOK1 / Fold change vs veh, TAOK1 / RFU, ACBD3 / Fold change vs veh, ACBD3 / RFU, TMA16 / Fold change vs veh, TMA16 / RFU, RWDD3 / Fold change vs veh, RWDD3 / RFU, BCAT1 / Fold change vs veh, BCAT1 / RFU, EDEM3 / Fold change vs veh, EDEM3 / RFU, TMEM33 / Fold change vs veh, TMEM33 / RFU, WDR75 / Fold change vs veh, WDR75 / RFU, AHCTF1 / Fold change vs veh, AHCTF1 / RFU, TFRC / Fold change vs veh, TFRC / RFU, ZDHHC17 / Fold change vs veh, ZDHHC17 / RFU, NOM1 / Fold change vs veh, NOM1 / RFU, ARL8B / Fold change vs veh, ARL8B / RFU, ZBTB11 / Fold change vs veh, ZBTB11 / RFU, TAMM41 / Fold change vs veh, TAMM41 / RFU, KIAA1704 /// LOC100996395 / Fold change vs veh, KIAA1704 /// LOC100996395 / RFU, ING1 / Fold change vs veh, ING1 / RFU, TRMT61B / Fold change vs veh, TRMT61B / RFU, FUBP3 / Fold change vs veh, FUBP3 / RFU, TP53 / Fold change vs veh, TP53 / RFU, TNKS2 / Fold change vs veh, TNKS2 / RFU, ZFP14 / Fold change vs veh, ZFP14 / RFU, ACTR2 / Fold change vs veh, ACTR2 / RFU, PPP3R1 / Fold change vs veh, PPP3R1 / RFU, PIK3R1 / Fold change vs veh, PIK3R1 / RFU, HNRNPA1 / Fold change vs veh, HNRNPA1 / RFU, RNF170 / Fold change vs veh, RNF170 / RFU, ZNF28 / Fold change vs veh, ZNF28 / RFU, RNGTT / Fold change vs veh, RNGTT / RFU, OGT / Fold change vs veh, OGT / RFU, BRD1 / Fold change vs veh, BRD1 / RFU, MARS / Fold change vs veh, MARS / RFU, ZNF655 / Fold change vs veh, ZNF655 / RFU, FAHD1 / Fold change vs veh, FAHD1 / RFU, BDP1 / Fold change vs veh, BDP1 / RFU, LRRCC1 / Fold change vs veh, LRRCC1 / RFU, ARID1A / Fold change vs veh, ARID1A / RFU, ZNF146 / Fold change vs veh, ZNF146 / RFU, ZNF330 / Fold change vs veh, ZNF330 / RFU, GPN3 / Fold change vs veh, GPN3 / RFU, C9orf123 / Fold change vs veh, C9orf123 / RFU, N4BP2L2 / Fold change vs veh, N4BP2L2 / RFU, ARFIP1 / Fold change vs veh, ARFIP1 / RFU, FAM179B / Fold change vs veh, FAM179B / RFU, BCL10 / Fold change vs veh, BCL10 / RFU, UHRF1BP1L / Fold change vs veh, UHRF1BP1L / RFU, BET1 / Fold change vs veh, BET1 / RFU, CNOT2 / Fold change vs veh, CNOT2 / RFU, ZNF268 / Fold change vs veh, ZNF268 / Fold change vs veh, ZNF507 / RFU, DGCR2 / Fold change vs veh, DGCR2 / RFU, WDSUB1 / Fold change vs veh, WDSUB1 / Fold change vs veh, HSP90B1 /// MIR3652 / RFU, ADSS / Fold change vs veh, ADSS / RFU, GK / Fold change vs veh, GK / RFU, ZNF148 / Fold change vs veh, ZNF148 / RFU, TAF9 / Fold change vs veh, TAF9 / RFU, SLC1A5 / Fold change vs veh, SLC1A5 / RFU, SLMO2 / Fold change vs veh, SLMO2 / RFU, ABCC4 / Fold change vs veh, ABCC4 / RFU, LOC101060439 /// RAP1B / Fold change vs veh, LOC101060439 /// RAP1B / RFU, RFX7 / Fold change vs veh, RFX7 / RFU, GTPBP10 / Fold change vs veh, GTPBP10 / RFU, CNEP1R1 / Fold change vs veh, CNEP1R1 / RFU, BIVM-ERCC5 /// ERCC5 / Fold change vs veh, BIVM-ERCC5 /// ERCC5 / RFU, ILF3 / Fold change vs veh, ILF3 / RFU 11762660_at / Fold change /veh 11762660_at / RFU VCAN (11757783_s_at) / Fold change /veh VCAN (11757783_s_at) / RFU DDX43 (11728927_at) / Fold change /veh DDX43 (11728927_at) / RFU KRT8 (11758188_x_at) / Fold change /veh KRT8 (11758188_x_at) / RFU NKD1 (11759106_at) / Fold change /veh NKD1 (11759106_at) / RFU SRD5A1 (11742802_a_at) / Fold change /veh SRD5A1 (11742802_a_at) / RFU TPSAB1 /// TPSB2 (11721975_s_at) / Fold change /veh TPSAB1 /// TPSB2 (11721975_s_at) / RFU GSTM3 (11746129_a_at) / Fold change /veh GSTM3 (11746129_a_at) / RFU IL23R (11737362_x_at) / Fold change /veh IL23R (11737362_x_at) / RFU TMEM51 (11727254_a_at) / Fold change /veh TMEM51 (11727254_a_at) / RFU PIWIL2 (11732686_x_at) / Fold change /veh PIWIL2 (11732686_x_at) / RFU ORM1 (11744905_x_at) / Fold change /veh ORM1 (11744905_x_at) / RFU CCDC152 (11743942_at) / Fold change /veh CCDC152 (11743942_at) / RFU ECM1 (11717891_a_at) / Fold change /veh ECM1 (11717891_a_at) / RFU IL23R (11748794_a_at) / Fold change /veh IL23R (11748794_a_at) / RFU TNFAIP8L3 (11732012_x_at) / Fold change /veh TNFAIP8L3 (11732012_x_at) / RFU MBOAT4 (11741988_at) / Fold change /veh MBOAT4 (11741988_at) / RFU 11764193_at / Fold change /veh 11764193_at / RFU TMEM53 (11763286_at) / Fold change /veh TMEM53 (11763286_at) / RFU MAGEB2 (11727129_at) / Fold change /veh MAGEB2 (11727129_at) / RFU TMEM200A (11744735_a_at) / Fold change /veh TMEM200A (11744735_a_at) / RFU CCDC152 (11751479_a_at) / Fold change /veh CCDC152 (11751479_a_at) / RFU FAM211A (11726209_a_at) / Fold change /veh FAM211A (11726209_a_at) / RFU RGS16 (11746705_a_at) / Fold change /veh RGS16 (11746705_a_at) / RFU VCAN (11755009_s_at) / Fold change /veh VCAN (11755009_s_at) / RFU RHOB (11743442_s_at) / Fold change /veh RHOB (11743442_s_at) / RFU RGS16 (11720943_a_at) / Fold change /veh RGS16 (11720943_a_at) / RFU RGS16 (11720944_at) / Fold change /veh RGS16 (11720944_at) / RFU, VPS4B / Fold change vs veh, VPS4B / RFU, CREB1 / Fold change vs veh, CREB1 / RFU, DNAJC13 / Fold change vs veh, DNAJC13 / RFU, GNAQ / Fold change vs veh, GNAQ / RFU, CDK5R1 / Fold change vs veh, CDK5R1 / RFU, ZRANB3 / Fold change vs veh, ZRANB3 / RFU, CUL4A / Fold change vs veh, CUL4A / RFU, CCNY / Fold change vs veh, CCNY / RFU, UFL1 / Fold change vs veh, UFL1 / RFU, COG3 / Fold change vs veh, COG3 / RFU, DIAPH2 / Fold change vs veh, DIAPH2 / RFU, SKA2 / Fold change vs veh, SKA2 / RFU, AFF3 / Fold change vs veh, AFF3 / RFU, LMF1 / Fold change vs veh, LMF1 / RFU, IPO11 / Fold change vs veh, IPO11 / RFU, DFFB / Fold change vs veh, DFFB / RFU, FOXP1 / Fold change vs veh, FOXP1 / RFU, CARD8 / Fold change vs veh, CARD8 / RFU, STRN3 / Fold change vs veh, STRN3 / RFU, ADK / Fold change vs veh, ADK / RFU, RASSF2 / Fold change vs veh, RASSF2 / RFU, WIPF1 / Fold change vs veh, WIPF1 / RFU, LARP1B / Fold change vs veh, LARP1B / RFU, RASA1 / Fold change vs veh, RASA1 / RFU, RB1 / Fold change vs veh, RB1 / RFU, PPFIA1 / Fold change vs veh, PPFIA1 / RFU, MAT2A / Fold change vs veh, MAT2A / RFU, CCT5 / Fold change vs veh, CCT5 / RFU, WDR92 / Fold change vs veh, WDR92 / RFU, CUX1 / Fold change vs veh, CUX1 / RFU, TTC7A / Fold change vs veh, TTC7A / RFU, TMEM135 / Fold change vs veh, TMEM135 / RFU, DEPTOR / Fold change vs veh, DEPTOR / RFU, CPM / Fold change vs veh, CPM / RFU, DNAJB6 / Fold change vs veh, DNAJB6 / RFU, CACNA2D3 / Fold change vs veh, CACNA2D3 / RFU, DTX4 / Fold change vs veh, DTX4 / RFU, TFCP2 / Fold change vs veh, TFCP2 / RFU, GMCL1 /// GMCL1P1 / Fold change vs veh, GMCL1 /// GMCL1P1 / RFU, AEBP2 / Fold change vs veh, AEBP2 / RFU, SNHG1 /// SNORD22 /// SNORD25 /// SNORD26 /// SNORD27 /// SNORD28 /// SNORD29 /// SNORD31 / Fold change vs veh, SNHG1 /// SNORD22 /// SNORD25 /// SNORD26 /// SNORD27 /// SNORD28 /// SNORD29 /// SNORD31 / Fold change (Aza/veh), C12orf56 (ProbeSet 11735607_a_at) / Fold change (ACY-1035/veh), C12orf56 (ProbeSet 11735607_a_at) / Fold change (Aza/veh), FGFR1OP (ProbeSet 11751329_s_at) / Fold change (ACY-1035/veh), FGFR1OP (ProbeSet 11751329_s_at) / Fold change (Aza/veh), VPS36 (ProbeSet 11739960_a_at) / Fold change (ACY-1035/veh), VPS36 (ProbeSet 11739960_a_at) / RFU SYPL1 (11715823_x_at) / Fold change /veh SYPL1 (11715823_x_at) / RFU IGFBP7 (11715501_s_at) / Fold change /veh IGFBP7 (11715501_s_at) / RFU REEP3 (11722064_at) / Fold change /veh REEP3 (11722064_at) / RFU IGLL1 (11728026_x_at) / Fold change /veh IGLL1 (11728026_x_at): dose or concentration left out as unconfirmed
Settings: ProbeSet 11758397_s_at; LIST B

Nc1ccc(-c2cccs2)cc1NC(=O)c1ccc2c(c1)cc(C1CC1)n2CCN1CCOCC1 [ACY-1035]
RFU, RNF170: 143.47 RFU
